Test results from patent publication US10233173B2, “Substituted 1,2,3-triazoles as NR2B-selective NMDA modulators” (JANSSEN PHARMACEUTICA NV, priority 2016, dated 2019).

Target: human GluN1/GluN2B NMDA receptors (Homo sapiens, UniProt Q05586+Q13224)
Assay: Cell-based calcium flux (FLIPR) assay on cloned human NR1/NR2B ion channels expressed in mammalian cells
Settings: standard assay; human GluN1/GluN2B, calcium flux (FLIPR), glutamate ~EC80
Procedure, shortened: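 Calcium influx followed by FLIPR fluorescence after 5 min compound exposure and a further 5 min co-agonist challenge: 10 μM glycine with glutamate at ~EC80 (standard) or EC40 (HTS).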

Sequence of human GluN1/GluN2B NMDA receptors (Q13224 27-1484, other chains not shown): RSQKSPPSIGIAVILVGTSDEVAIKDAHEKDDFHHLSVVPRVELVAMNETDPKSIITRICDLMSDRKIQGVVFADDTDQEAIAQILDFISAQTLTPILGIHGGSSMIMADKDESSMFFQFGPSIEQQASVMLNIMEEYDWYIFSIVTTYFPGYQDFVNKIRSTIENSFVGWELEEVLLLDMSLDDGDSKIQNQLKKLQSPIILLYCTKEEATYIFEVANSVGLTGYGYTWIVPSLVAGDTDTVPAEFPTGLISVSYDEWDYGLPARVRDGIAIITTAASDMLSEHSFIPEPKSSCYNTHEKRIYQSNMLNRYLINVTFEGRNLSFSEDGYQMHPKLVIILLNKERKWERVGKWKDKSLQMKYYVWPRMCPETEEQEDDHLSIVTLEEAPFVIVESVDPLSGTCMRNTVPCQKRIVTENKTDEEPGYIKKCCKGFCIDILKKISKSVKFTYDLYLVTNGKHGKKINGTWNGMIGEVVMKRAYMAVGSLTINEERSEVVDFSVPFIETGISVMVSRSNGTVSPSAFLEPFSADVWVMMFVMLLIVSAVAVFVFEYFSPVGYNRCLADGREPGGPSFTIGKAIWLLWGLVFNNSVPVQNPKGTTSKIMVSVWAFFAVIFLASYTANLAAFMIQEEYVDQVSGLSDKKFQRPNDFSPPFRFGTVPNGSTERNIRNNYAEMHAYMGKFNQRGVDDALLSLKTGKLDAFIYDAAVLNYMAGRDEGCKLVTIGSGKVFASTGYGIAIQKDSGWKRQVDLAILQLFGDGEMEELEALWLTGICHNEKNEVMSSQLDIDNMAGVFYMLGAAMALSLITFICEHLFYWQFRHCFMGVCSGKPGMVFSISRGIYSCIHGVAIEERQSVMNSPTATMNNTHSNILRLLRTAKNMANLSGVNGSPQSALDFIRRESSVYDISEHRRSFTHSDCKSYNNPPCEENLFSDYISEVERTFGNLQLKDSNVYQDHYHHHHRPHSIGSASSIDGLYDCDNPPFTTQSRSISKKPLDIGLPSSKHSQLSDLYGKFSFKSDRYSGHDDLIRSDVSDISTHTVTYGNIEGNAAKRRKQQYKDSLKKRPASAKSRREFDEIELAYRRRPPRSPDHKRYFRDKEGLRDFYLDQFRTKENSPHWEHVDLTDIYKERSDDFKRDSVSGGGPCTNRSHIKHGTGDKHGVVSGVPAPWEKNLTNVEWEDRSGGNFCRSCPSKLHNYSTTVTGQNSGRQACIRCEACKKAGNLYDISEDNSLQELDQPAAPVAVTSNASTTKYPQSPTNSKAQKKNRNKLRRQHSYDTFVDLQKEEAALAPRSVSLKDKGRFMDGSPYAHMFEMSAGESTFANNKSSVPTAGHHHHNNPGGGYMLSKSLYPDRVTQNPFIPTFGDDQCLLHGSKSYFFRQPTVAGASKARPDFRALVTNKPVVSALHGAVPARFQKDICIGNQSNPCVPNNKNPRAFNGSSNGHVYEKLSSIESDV

SMILES	IC50 [µM]
Cc1cccc(-n2cc(COc3ncc(F)cn3)nn2)c1 [Example 247, 5-Fluoro-2-[[1-(m-tolyl)triazol-4-yl]methoxy]pyrimidine]	0.34
COc1cnc(OCc2cn(-c3cccc(C)c3)nn2)nc1 [Example 248, 5-Methoxy-2-[[1-(m-tolyl)triazol-4-yl]methoxy]pyrimidine]	0.009
Cc1cccc(-n2cc(COc3ncc(C(C)(C)O)cn3)nn2)c1 [Example 249, 2-[2-[[1-(m-Tolyl)triazol-4-yl]methoxy]pyrimidin-5-yl]propan-2-ol]	0.289
COCc1ccnc(OCc2cn(-c3cccc(C)c3)nn2)n1 [Example 250, 4-(Methoxymethyl)-2-[[1-(m-tolyl)triazol-4-yl]methoxy]pyrimidine]	0.249
Cc1cccc(-n2cc(COc3ncc(C)c(C)n3)nn2)c1 [Example 251, 4,5-Dimethyl-2-[[1-(m-tolyl)triazol-4-yl]methoxy]pyrimidine]	0.002
Cc1cccc(-n2cc(COc3ncc(F)c(C)n3)nn2)c1 [Example 252, 5-Fluoro-4-methyl-2-[[1-(m-tolyl)triazol-4-yl]methoxy]pyrimidine]	0.065
Cc1cccc(-n2cc(COc3ncc(Cl)c(C)n3)nn2)c1 [Example 253, 5-Chloro-4-methyl-2-[[1-(m-tolyl)triazol-4-yl]methoxy]pyrimidine]	0.007
Cc1cccc(-n2cc(COc3ncc(C)c(N)n3)nn2)c1 [Example 254, 5-Methyl-2-[[1-(m-tolyl)triazol-4-yl]methoxy]pyrimidin-4-amine]	0.151
CC(=O)c1cnc(OCc2cn(-c3cccc(C)c3)nn2)nc1 [Example 255, 1-[2-[[1-(m-Tolyl)triazol-4-yl]methoxy]pyrimidin-5-yl]ethanone]	0.224
Cc1ccc(-n2cc(COc3ncccn3)nn2)cc1 [Example 256, 2-[[1-(p-Tolyl)triazol-4-yl]methoxy]pyrimidine]	4.42
Cc1ccc(-n2cc(COc3ncc(F)cn3)nn2)cc1 [Example 257, 5-Fluoro-2-[[1-(p-tolyl)triazol-4-yl]methoxy]pyrimidine]	2.69
COc1cnc(OCc2cn(-c3ccc(C)cc3)nn2)nc1 [Example 258, 5-Methoxy-2-[[1-(p-tolyl)triazol-4-yl]methoxy]pyrimidine]	0.225
Cc1ccc(-n2cc(COc3ncc(Cl)cn3)nn2)cc1 [Example 259, 5-Chloro-2-[[1-(p-tolyl)triazol-4-yl]methoxy]pyrimidine]	0.711
Cc1ccc(-n2cc(COc3ncc(C)cn3)nn2)cc1 [Example 260, 5-Methyl-2-[[1-(p-tolyl)triazol-4-yl]methoxy]pyrimidine]	0.271
CCc1cnc(OCc2cn(-c3ccc(C)cc3)nn2)nc1 [Example 261, 5-Ethyl-2-[[1-(p-tolyl)triazol-4-yl]methoxy]pyrimidine]	0.093
CC(C)c1cccc(-n2cc(COc3ncccn3)nn2)c1 [Example 262, 2-[[1-(3-Isopropylphenyl)triazol-4-yl]methoxy]pyrimidine]	0.358
CC(C)c1cccc(-n2cc(COc3ncc(F)cn3)nn2)c1 [Example 263, 5-Fluoro-2-[[1-(3-isopropylphenyl)triazol-4-yl]methoxy]pyrimidine]	0.227
COc1cnc(OCc2cn(-c3cccc(C(C)C)c3)nn2)nc1 [Example 264, 2-[[1-(3-Isopropylphenyl)triazol-4-yl]methoxy]-5-methoxy-pyrimidine]	0.006
CC(C)c1cccc(-n2cc(COc3ncc(Cl)cn3)nn2)c1 [Example 265, 5-Chloro-2-[[1-(3-isopropylphenyl)triazol-4-yl]methoxy]pyrimidine]	0.016
Cc1cnc(OCc2cn(-c3cccc(C(C)C)c3)nn2)nc1 [Example 266, 2-[[1-(3-Isopropylphenyl)triazol-4-yl]methoxy]-5-methyl-pyrimidine]	0.01
CCc1cnc(OCc2cn(-c3cccc(C(C)C)c3)nn2)nc1 [Example 267, 5-Ethyl-2-[[1-(3-isopropylphenyl)triazol-4-yl]methoxy]pyrimidine]	0.012
Cc1ccnc(OCc2cn(-c3cccc(C(F)F)c3)nn2)n1 [Example 268, 2-[[1-[3-(Difluoromethyl)phenyl]triazol-4-yl]methoxy]-4-methyl-pyrimidine]	0.134
Fc1cnc(OCc2cn(-c3cccc(C(F)F)c3)nn2)nc1 [Example 269, 2-[[1-[3-(Difluoromethyl)phenyl]triazol-4-yl]methoxy]-5-fluoro-pyrimidine]	0.325
CC(C)c1ccnc(OCc2cn(-c3cccc(C(F)F)c3)nn2)n1 [Example 270]	0.617

SMILES	IC50 [µM]
COCc1ccnc(OCc2cn(-c3cccc(C(F)F)c3)nn2)n1 [Example 271]	0.36
CC(C)(O)c1cnc(OCc2cn(-c3cccc(C(F)F)c3)nn2)nc1 [Example 272, 2-[2-[[1-[3-(Difluoromethyl)phenyl]triazol-4-yl]methoxy]pyrimidin-5-yl]propan-2-ol]	0.173
FC(F)c1cnc(OCc2cn(-c3cccc(C(F)F)c3)nn2)nc1 [Example 273, 5-(Difluoromethyl)-2-[[1-[3-(difluoromethyl)phenyl]triazol-4-yl]methoxy]pyrimidine]	0.027
FC(F)c1cccc(-n2cc(COc3nccc(C(F)F)n3)nn2)c1 [Example 274, 4-(Difluoromethyl)-2-[[1-[3-(difluoromethyl)phenyl]triazol-4-yl]methoxy]pyrimidine]	0.813
FC(F)c1cccc(-n2cc(COc3ncc(C(F)(F)F)cn3)nn2)c1 [Example 275, 2-[[1-[3-(Difluoromethyl)phenyl]triazol-4-yl]methoxy]-5-(trifluoromethyl)pyrimidine]	0.025
FC(F)Oc1cnc(OCc2cn(-c3cccc(C(F)F)c3)nn2)nc1 [Example 276, 5-(Difluoromethoxy)-2-[[1-[3-(difluoromethyl)phenyl]triazol-4-yl]methoxy]pyrimidine]	0.031
CN(C)c1ccnc(OCc2cn(-c3cccc(C(F)F)c3)nn2)n1 [Example 277, 2-[[1-[3-(Difluoromethyl)phenyl]triazol-4-yl]methoxy]-N,N-dimethyl-pyrimidin-4-amine]	0.041
Cc1nc(OCc2cn(-c3cccc(C(F)F)c3)nn2)ncc1F [Example 278, 2-[[1-[3-(Difluoromethyl)phenyl]triazol-4-yl]methoxy]-5-fluoro-4-methyl-pyrimidine]	0.042
Cc1nc(OCc2cn(-c3cccc(C(F)F)c3)nn2)ncc1Cl [Example 279, 5-Chloro-2-[[1-[3-(difluoromethyl)phenyl]triazol-4-yl]methoxy]-4-methyl-pyrimidine]	0.003
Cc1cnc(Cl)nc1OCc1cn(-c2cccc(C(F)F)c2)nn1 [Example 280, 2-Chloro-4-[[1-[3-(difluoromethyl)phenyl]triazol-4-yl]methoxy]-5-methyl-pyrimidine]	0.173
Cc1cnc(OCc2cn(-c3cccc(C(F)F)c3)nn2)nc1N(C)C [Example 281, 2-[[1-[3-(Difluoromethyl)phenyl]triazol-4-yl]methoxy]-N,N,5-trimethyl-pyrimidin-4-amine]	0.13
FC(F)c1cccc(-n2cc(COc3ncc(C4CC4)cn3)nn2)c1 [Example 282, 5-Cyclopropyl-2-[[1-[3-(difluoromethyl)phenyl]triazol-4-yl]methoxy]pyrimidine]	0.011
FC(F)c1cccc(-n2cc(COc3nccc(C4CC4)n3)nn2)c1 [Example 283, 4-Cyclopropyl-2-[[1-[3-(difluoromethyl)phenyl]triazol-4-yl]methoxy]pyrimidine]	0.169
FC(F)c1cccc(-n2cc(COc3nccc(N4CCCC4)n3)nn2)c1 [Example 284, 2-[[1-[3-(Difluoromethyl)phenyl]triazol-4-yl]methoxy]-4-pyrrolidin-1-yl-pyrimidine]	0.094
FC(F)c1cccc(-n2cc(COc3nccc(N4CCCCC4)n3)nn2)c1 [Example 285, 2-[[1-[3-(Difluoromethyl)phenyl]triazol-4-yl]methoxy]-4-(1-piperidyl)pyrimidine]	0.299
Cc1cnc(OCc2cn(-c3cccc(C(F)(F)F)c3)nn2)nc1 [Example 286, 5-Methyl-2-[[1-[3-(trifluoromethyl)phenyl]triazol-4-yl]methoxy]pyrimidine]	0.012
CCc1cnc(OCc2cn(-c3cccc(C(F)(F)F)c3)nn2)nc1 [Example 287, 5-Ethyl-2-[[1-[3-(trifluoromethyl)phenyl]triazol-4-yl]methoxy]pyrimidine]	0.005
CC(C)c1cnc(OCc2cn(-c3cccc(C(F)(F)F)c3)nn2)nc1 [Example 288, 5-Isopropyl-2-[[1-[3-(trifluoromethyl)phenyl]triazol-4-yl]methoxy]pyrimidine]	0.04
FC(F)c1cnc(OCc2cn(-c3cccc(C(F)(F)F)c3)nn2)nc1 [Example 289, 5-(Difluoromethyl)-2-[[1-[3-(trifluoromethyl)phenyl]triazol-4-yl]methoxy]pyrimidine]	0.037
Cc1cnc(OCc2cn(-c3cccc(C(F)(F)F)c3)nn2)nc1C [Example 290, 4,5-Dimethyl-2-[[1-[3-(trifluoromethyl)phenyl]triazol-4-yl]methoxy]pyrimidine]	0.007
Cc1nc(OCc2cn(-c3cccc(C(F)(F)F)c3)nn2)ncc1Cl [Example 291, 5-Chloro-4-methyl-2-[[1-[3-(trifluoromethyl)phenyl]triazol-4-yl]methoxy]pyrimidine]	0.009
CC(F)(F)c1cccc(-n2cc(COc3ncccn3)nn2)c1 [Example 292, 2-[[1-[3-(1,1-Difluoroethyl)phenyl]triazol-4-yl]methoxy]pyrimidine]	0.105
CC(F)(F)c1cccc(-n2cc(COc3ncc(Br)cn3)nn2)c1 [Example 293, 5-Bromo-2-[[1-[3-(1,1-difluoroethyl)phenyl]triazol-4-yl]methoxy]pyrimidine]	0.039
CC(F)(F)c1cccc(-n2cc(COc3ncc(Cl)cn3)nn2)c1 [Example 294, 5-Chloro-2-[[1-[3-(1,1-difluoroethyl)phenyl]triazol-4-yl]methoxy]pyrimidine]	0.003
